Results taken from patent US7419984B2, “Pyrimidines and uses thereof” (Cell Therapeutics, Inc., priority 2002, dated 2008).

Target: T1, human LPAAT-β (Homo sapiens, UniProt O15120)
T1 construct: the full-length human LPAAT-β cDNA was amplified by PCR; poly-histidine tag (N); made in house; host or cells: Sf9 insect cells (baculovirus, pFastBac HTc); the membrane fraction was used as the enzyme
T1 sequence (O15120 24-278): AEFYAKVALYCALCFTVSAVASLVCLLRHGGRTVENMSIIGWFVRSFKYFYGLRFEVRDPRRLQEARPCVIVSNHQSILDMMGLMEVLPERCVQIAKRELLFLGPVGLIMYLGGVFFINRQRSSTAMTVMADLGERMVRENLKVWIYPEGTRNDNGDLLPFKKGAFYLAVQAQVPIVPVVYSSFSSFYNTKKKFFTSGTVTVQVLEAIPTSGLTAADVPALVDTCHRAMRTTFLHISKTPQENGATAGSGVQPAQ
Test: LPAAT-β cell-free assay
Assay type: biochemical
Conditions: Sf9 cell membrane overexpressing recombinant LPAAT-β
Text: For the construction of Baculovirus expression vectors, the full-length human LPAAT-β cDNA was amplified by PCR from the DNA template pCE9.LPAAT-β (West et al., DNA Cell Bid. 16.691-701 (1997)) using the primers 5′-[…] […] […] […]-3′ (olpb1F; SEQ ID NO:1) and 5′-[…] […] […]-3′ (olpb1R; SEQ ID NO:2). The ˜870 bp fragment generated was reamplified by PCR using the primers 5′ […] […] […] […] ATC-3′ (olpb2F; SEQ ID NO:3) and 5′-[…] […] […]-3′ (olpb1R; SEQ ID NO:2). The ˜890 bp fragment generated was then cleaved with Sal I and Xba I for insertion into pFastBac™ HTc vector (Life Technologies, Gaithersberg, M.d.) between the Sal I and Xba I sites for the generation of the plasmid pFB.LPAAT-β. This plasmid was then transformed into E. coli DH10Bac™ (Life Technologies, Gaithersberg, M.d.) for the generation of recombinant Bacmid DNA for transfection in HighFive (Invitrogen, San Diego, Calif.) or SF9 insect cells for the production of recombinant Baculovirus stocks using the protocol described in the Bac-to-Bac® Baculovirus Expression System (Life Technologies, Gaithersberg, M.d.), a eukaryotic expression system for generating recombinant baculovirus through site-specific transposition in E. coli. Viral stocks harvested from the transfected cells can then be used to infect fresh insect cells for the subsequence expression of LPAAT-β fusion protein with a poly-histidine tag and a myc-epitope near its N-terminus. The membrane fraction from these Sf9 cells would be the source of LPAAT enzyme.
For the preparation of membranes from Sf9 Cells, all steps are performed on ice or at 4° C. Sf9 cell pellets (˜10^8 cells) were thawed and resuspended in 1-2 ml of buffer A (20 mM Hepes, pH 7.5, 1 mM DTT, 1 mM EDTA, 20% w/v glycerol, 1 mM Benzamidine, 1 μg/ml soybean trypsin inhibitor (SBTI), 1 μug/ml pepstatin A) w/o DTT but with 1 mM Pefabloc. The cells were lysed by sonication using a Branson Sonifier at output=2, duty cycle=2, 10 pulses each at 10 s. with the tip of small sonicator probe submerged but not touching the walls. DTT was then added to 1 mM from a 1 M stock. The samples were centrifuged at 1500 rpm for 5 min. The low speed supernatant was saved and centrifuged (TLA 100.3 rotor, polycarbonate tubes, 2 ml/tube or 1.5 ml/tube minimum) at 100000×g for 1 hr. The high speed pellet was resuspend in Buffer A with a probe sonicator (10 pulses @ output #2 and duty cycle 20%) as a source of LPAAT enzyme.
LPAAT-β catalyzes the transfer of an acyl group from a donor such as acyl-CoA to LPA. The transfer of the acyl group from acyl-CoA to LPA leads to the release of free CoA, which can be reacted with the thiol reagent, 5,5′-dithiobis(2-nitrobenzoic acid) (DTNB). The reaction between DTNB and the free sulfhydryl group from CoA generates a yellow-colored product, 3-carboxylato-4-nitrothiophenolate (CNP), that absorbs at 413 nm. LPAAT-β derived from Sf9 cell membrane overexpressing LPAAT-β were resuspended in HEPES saline buffer (20 mM HEPES pH 7.5, 150 mM NaCl), 1 mg/ml BSA and 72 μl aliquots were distributed into 96-well microtiter plates. 8 μl of compound of interest at 200 μM dissolved in 100% DMSO was added into each well. […] of 1 mM 18:1-CoA and 1 mM sn-1-18:1 lysoPA was then added to each well to initiate the reaction and allowed to run at room temperature for 25 min. 100 μl of 1 mM DTNB in 100% ethanol was then added to each well to quench the reaction and for color development. The absorbance at 405 nm, measured using a spectrophotometer plate reader, is proportional to the activity of LPAAT-2 in the sample. This colorimetric assay was used for the high throughput screening of LPAAT inhibitors.
The radiometric assay was carried out in Sf9 cell membrane overexpressing LPAAT-β resuspended in HEPES-saline buffer, pH 7.5, 1 mg/ml BSA, 1 mM EDTA and 200 μM [^14C]18:1-CoA and 200 μM sn-1-18:1 lysoPA.

**Q.** For `COc1ccc(Cl)cc1-c1nc(N)cc(Nc2ccc3cn[nH]c3c2)n1` [Example 37, 2-(5-Chloro-2-methoxy-phenyl)-N-(1H-indazol-6-yl)-pyrimidine4,6-diamine], which IC50 is on record?
**A.** 2100 nM

**Q.** How did the IC50 turn out when `COc1ccccc1COc1ccc(Br)cc1-c1cc(Nc2ccc(C)cc2)nc(N)n1` [Example 188, 6-[5-Bromo-2-(2-methoxy-benzyloxy)-phenyl]-N*4*-p-tolyl-pyrimidine-2,4-diamine] was run?
**A.** 21 nM

**Q.** With `COc1ccc(Cl)cc1-c1nc(N)nc(Nc2ccc3cn[nH]c3c2)c1C` [Example 51, 6-(5-Chloro-2-methoxy-phenyl)-5-methyl-N*4*-(1H-indazol-6-yl)-pyrimidine-2,4-diamine] as the compound, how does the “LPAAT-β cell-free assay (IC50, μM)” value read?
**A.** Lessactive

**Q.** For `CCOc1ccc(Br)cc1-c1cc(Nc2ccc(C(F)(F)F)cc2)ncn1` [Example 180, [6-(5-Bromo-2-ethoxy-phenyl)-pyrimidin-4-yl]-(4-trifluoromethyl-phenyl)-amine], which IC50 is on record?
**A.** 160 nM

**Q.** How did the IC50 turn out when `CCOc1ccc(Br)cc1-c1cc(Nc2cnc3ccccc3c2)nc(N)n1` [Example 144, 6-(5-Bromo-2-ethoxy-phenyl)-N*4*-quinolin-3-yl-pyrimidine-2,4-diamine] was run?
**A.** 460 nM

**Q.** With `CCOc1ccc(Cl)cc1-c1cc(Nc2ccccc2Cl)nc(N)n1` [Example 117, 6-(5-Chloro-2-ethoxy-phenyl)-N*4*-(2-chloro-phenyl)-pyrimidine-2,4-diamine] as the compound, how does the IC50 read?
**A.** 4900 nM

**Q.** With `CCOc1ccc(Cl)cc1-c1cc(Nc2ccc(C#N)cc2)nc(N)n1` [Example 57, 4-[2-Amino-6-(5-chloro-2-ethoxy-phenyl)-pyrimidin4-ylamino]-benzonitrile] as the compound, how does the IC50 read?
**A.** 22 nM

**Q.** `Nc1nc(Nc2ccc(O)cc2)cc(-c2cc(Cl)ccc2Cl)n1` [Example 17, 4-[2-Amino-6-(2,5-dichloro-phenyl)-pyrimidin-4-ylamino]-phenol] was tested. Which IC50 did it give?
**A.** 240 nM

**Q.** How did the IC50 turn out when `COc1ccc(Nc2cc(-c3cc(Cl)ccc3C)nc(N)n2)cc1` [Example 28, 6-(5-Chloro-2-methyl-phenyl)-N*4*-(4-methoxy-phenyl)-pyrimidine-2,4-diamine] was run?
**A.** 200 nM

**Q.** `CCOc1ccc(Cl)cc1-c1cc(Nc2ccc(C)cc2)nc(N)n1` [Example 53, 6-(5-Chloro-2-ethoxy-phenyl)-N*4*-p-tolyl-pyrimidine-2,4-diamine] was tested. Which IC50 did it give?
**A.** 95 nM

**Q.** `COC(=O)c1ccc(Nc2cc(-c3cc(Cl)ccc3OC)nc(N)n2)cc1` [Example 9, 4-[2-Amino-6-(5-chloro-2-methoxy-phenyl)-pyrimidin-4-ylamino]-benzoic acid methyl ester] was tested. Which IC50 did it give?
**A.** 600 nM

**Q.** With `Nc1nc(Nc2ccc(Cl)cc2)cc(-c2cc(Br)ccc2O)n1` [Example 72, 2-[2-Amino-6-(4-chloro-phenylamino)-pyrimidin-4-yl]-4-bromo-phenol] as the compound, how does the IC50 read?
**A.** 450 nM

**Q.** Which IC50 does the source give for `CNC(=O)c1cc(Nc2cc(-c3cc(Cl)ccc3C)nc(N)n2)ccc1Br` [Example 77, 5-[2-Amino-6-(5-chloro-2-methyl-phenyl)-pyrimidin4-ylamino]-2-bromo-N-methyl-benzamide] here?
**A.** 370 nM

**Q.** For `CCOc1ccc(Cl)cc1-c1cc(N(C)c2ccc(Cl)cc2)nc(N)n1` [Example 122, 6-(5-chloro-2-ethoxyphenyl)-N*4*-(4-chlorophenyl)-N*4*-methylpyrimidine-2,4-diamine], which IC50 is on record?
**A.** 1200 nM

**Q.** How did the IC50 turn out when `CCc1ccc(Cl)cc1-c1cc(Nc2ccc(CCO)cc2)nc(N)n1` [Example 175, 2-{4-[2-amino-6-(5-chloro-2-ethyl-phenyl)-pyrimidin4-ylamino]-phenyl}-ethanol] was run?
**A.** 100 nM

**Q.** How did the IC50 turn out when `Nc1nc(Nc2ccc3c(c2)OCO3)cc(-c2cc(Cl)ccc2Cl)n1` [Example 23, N*4*-Benzo[1,3]dioxol-5-yl-6-(2,5-dichloro-phenyl)-pyrimidine-2,4-diamine] was run?
**A.** 95 nM

**Q.** `Nc1nc(Nc2ccc(Cl)cc2)cc(-c2ccccc2C(F)(F)F)n1` [Example 105, N*4*-(4-Chloro-phenyl)-6-(2-trifluoromethyl-phenyl)-pyrimidine-2,4-diamine] was tested. Which IC50 did it give?
**A.** 1800 nM

**Q.** `Cc1ccc(Cl)cc1-c1cc(Nc2ccc(Br)cc2)nc(N)n1` [Example 30, N*4*-(4-Bromo-phenyl)-6-(5-chloro-2-methyl-phenyl)-pyrimidine-2,4-diamine] was tested. Which IC50 did it give?
**A.** 34 nM

**Q.** Which IC50 does the source give for `Nc1nc(Nc2ccc(Cl)cc2)cc(-c2cc(Br)ccc2OCCc2ccccc2)n1` [Example 166, 6-(5-Bromo-2-phenethyloxy-phenyl)-N*4*-(4-chloro-phenyl)-pyrimidine-2,4-diamine] here?
**A.** 5 nM

**Q.** With `CCOc1ccc(Cl)cc1-c1cc(Nc2ccc(OC)cc2)nc(N)n1` [Example 58, 6-(5-Chloro-2-ethoxy-phenyl)-N*4*-(4-methoxy-phenyl)-pyrimidine-2,4-diamine] as the compound, how does the IC50 read?
**A.** 200 nM

**Q.** For `Cc1ccc(Nc2cc(-c3cc(Cl)ccc3Cl)nc(N)n2)cc1` [Example 15, 6-(2,5-Dichloro-phenyl)-N*4*-p-tolyl-pyrimidine-2,4-diamine], which IC50 is on record?
**A.** 50 nM

**Q.** How did the IC50 turn out when `CCOc1ccc(Cl)cc1-c1cc(Nc2ccc(CCO)cc2)nc(N)n1` [Example 47, 2-{4-[2-Amino-6-(5-chloro-2-ethoxy-phenyl)-pyrimidin4-ylamino]-phenyl}-ethanol] was run?
**A.** 28 nM

**Q.** For `CCOc1ccc(Cl)cc1-c1cc(Nc2ccc(Cl)cc2)nc(N)n1` [Example 55, 6-(5-Chloro-2-ethoxy-phenyl)-N*4*-(4-chloro-phenyl)-pyrimidine-2,4-diamine], which IC50 is on record?
**A.** 17 nM

**Q.** How did the IC50 turn out when `COc1ccc(COc2ccc(Br)cc2-c2cc(Nc3ccc(Cl)cc3)nc(N)n2)cc1` [Example 185, 6-[5-Bromo-2-(4-methoxy-benzyloxy)-phenyl]-N*4*-(4-chloro-phenyl)-pyrimidine-2,4-diamine] was run?
**A.** 4 nM

**Q.** `Cc1ccc(Cl)cc1-c1cc(Nc2ccc(CO)cc2)nc(N)n1` [Example 33, {4-[2-Amino-6-(5-chloro-2-methyl-phenyl)-pyrimidin4-ylamino]-phenyl}-methanol] was tested. Which IC50 did it give?
**A.** 95 nM

**Q.** Which IC50 does the source give for `CC(=O)c1ccc(Nc2cc(-c3cccc(Cl)c3)nc(N)n2)cc1` [Example 139, 1-{4-[2-Amino-6-(3-chloro-phenyl)-pyrimidin-4-ylamino]-phenyl}-ethanone] here?
**A.** 340 nM

**Q.** Which IC50 does the source give for `COCCOc1ccc(Br)cc1-c1cc(Nc2ccc(Cl)cc2)nc(N)n1` [Example 143, 6-[5-Bromo-2-(2-methoxy-ethoxy)-phenyl]-N*4*-(4-chloro-phenyl)-pyrimidine-2,4-diamine] here?
**A.** 22 nM

**Q.** For `CCOc1ccc(Br)cc1-c1cc(Nc2ccc(C(O)C(F)(F)F)cc2)nc(N)n1` (centres unmarked) [Example 129, 1-{4-[2-Amino-6-(5-bromo-2-ethoxy-phenyl)-pyrimidin4-ylamino]-phenyl}-2,2,2-trifluoro-ethanol], which IC50 is on record?
**A.** 14 nM

**Q.** Which IC50 does the source give for `CCOc1ccc(Cl)cc1-c1cc(Nc2ccc(CCCCO)cc2)nc(N)n1` [Example 93, 4-{4-[2-Amino-6-(5-chloro-2-ethoxy-phenyl)-pyrimidin4-ylamino]-phenyl}-butan-1-ol] here?
**A.** 120 nM
